The structures appear in SMILES notation.

We go through 25 molecules from patent US11351168B1 (Celgene CAR LLC, priority 2008, dated 2022).

For test [1], the system named is BTK signaling in Ramos cells. Kind of test: BTK Ramos cellular assay (phosphorylation of BTK substrate PLCγ2). Conditions: Homo sapiens, 1 hour compound, anti-IgM stimulation, read-out: BTK Inhibition (Ramos cellular). Type of test: cell-based, human. How it is done: Compounds I-2, I-4, and I-7 were assayed in Ramos human Burkitt lymphoma cells. Ramos cells were grown in suspension in T225 flasks, spun down, resuspended in 50 ml serum-free media and incubated for 1 hour. Compound was added to Ramos cells in serum free media to a final concentration of 1, 0.1, 0.01, or 0.001 μM. Ramos cells were incubated with compound for 1 hour, washed again and resuspended in 100 ul serum-free media. Cells were then stimulated with 1 μg of goat F(ab′)2 Anti-Human IgM and incubated on ice for 10 minutes to activate B cell receptor signaling pathways. After 10 minutes, the cells were washed once with PBS and then lysed on ice with Invitrogen Cell Extraction buffer. 16 μg total protein from lysates were loaded on gel and blots were probed for phosphorylation of the BTK substrate PLCγ2.

The test system of test [2] is BTK kinase activity (PLCγ2 phosphorylation) in Ramos cells. Kind of test: Washout experiment with Ramos cells. To be noted: 100 nM compound for 1 hour, then washout. Type of test: cell-based, human. As for the experimental part:
Washout Experiment with Ramos Cells
Ramos cells were serum starved for one hour in RPMI media+1% glutamine at 37° C. After starvation, Ramos cells were treated with 100 nM compound diluted in serum free RPMI media for 1 hour. After compound treatment, the media was removed and cells were washed with compound-free media. Subsequently, Ramos cells were washed every 2 hours and resuspended in fresh compound-free media. Cells were collected at specified timepoints, treated with 1 ug anti-human IgM (Southern Biotech cat #2022-01) for 10 minutes on ice to induce BCR signaling and then washed in PBS. Ramos cells were then lysed in Cell Extraction Buffer (Invitrogen FNN0011) supplemented with Roche complete protease inhibitor tablets (Roche 11697498001) and phosphatase inhibitors (Roche 04 906 837 001) and 18 ug total protein lysate was loaded in each lane. Inhibition of BTK kinase activity was assayed by measuring its substrate (PLCγ2) phosphorylation by western blot with phospho-specific antibodies from Cell Signaling Technologies cat #3871. The results of this experiment with compounds I-2, I-4 and I-7 are depicted in FIGS. 1, 2 and 3.

The target in the next test is BTK (Homo sapiens (Human), UniProt Q06187). In words: Mass spectrometry for BTK (intact protein). Type of test: binding. Conditions: 1 hr, 10× fold excess of compound. How it is done: Mass Spectrometry for BTK
BTK, sequence (Q06187 whole entry): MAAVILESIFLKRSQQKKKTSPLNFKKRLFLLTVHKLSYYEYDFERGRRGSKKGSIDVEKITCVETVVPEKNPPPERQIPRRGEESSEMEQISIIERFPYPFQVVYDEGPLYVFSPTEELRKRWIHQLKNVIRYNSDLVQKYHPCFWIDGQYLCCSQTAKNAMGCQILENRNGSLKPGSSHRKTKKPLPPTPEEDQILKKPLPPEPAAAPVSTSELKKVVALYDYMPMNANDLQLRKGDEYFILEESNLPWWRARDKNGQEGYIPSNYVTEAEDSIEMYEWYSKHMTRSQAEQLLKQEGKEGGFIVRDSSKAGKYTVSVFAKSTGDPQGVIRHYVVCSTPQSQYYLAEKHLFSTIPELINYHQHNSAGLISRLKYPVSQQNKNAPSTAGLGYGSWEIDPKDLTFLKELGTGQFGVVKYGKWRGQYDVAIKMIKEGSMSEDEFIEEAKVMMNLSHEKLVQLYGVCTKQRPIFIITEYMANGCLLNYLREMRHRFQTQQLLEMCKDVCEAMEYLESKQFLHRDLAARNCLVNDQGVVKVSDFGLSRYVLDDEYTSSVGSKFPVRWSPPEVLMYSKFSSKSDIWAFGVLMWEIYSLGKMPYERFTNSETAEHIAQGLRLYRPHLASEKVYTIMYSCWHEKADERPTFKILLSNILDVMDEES
Intact BTK was incubated for 1 hr at a 10× fold excess of I-7 to protein. Aliquots (2 μl) of the samples were diluted with 10 μl of 0.1% TFA prior to micro C4 ZipTipping directly onto the MALDI target using Sinapinic acid as the desorption matrix (10 mg/ml in 0.1% TFA:Acetonitrile 20:80).

For the molecule `C#CCOc1cccc(Nc2ncc(C)c(Nc3cccc(NC(=O)C=C)c3)n2)c1` [Compound I-35, N-(3-(5-methyl-2-(3-(prop-2-ynyloxy)phenylamino)pyrimidin-4-ylamino)phenyl) acrylamide], the IC50 in test [1] was under 10 nM. Also, the “BTK Inhibition Type” value in test [2] is on record as “irreversible”. The corresponding values for `C=CC(=O)Nc1cccc(Oc2nc(Nc3ccccc3)ncc2F)c1` [Compound I-228, N-(3-(5-fluoro-2-(phenylamino)pyrimidin-4-yloxy)phenyl)acrylamide] are under 10 nM and “irreversible”. As for `C=C(C#N)C(O)c1ccc(Nc2nc(Nc3ccccc3)ncc2F)cc1` (stereo not drawn) [Compound I-161, 2-((4-(5-fluoro-2-(phenylamino)pyrimidin-4-ylamino)phenyl)(hydroxy)methyl)acrylonitrile], the “modification of BTK by mass spectrometry” value at BTK is given as “completely modify”. For `C=C(C#N)C(O)c1cccc(Nc2nc(Nc3ccc(OCCOC)cc3)ncc2F)c1` (stereo not drawn) [Compound I-71, 2-((3-(5-fluoro-2-(4-(2-methoxyethoxy)phenylamino)pyrimidin-4-ylamino)phenyl)(hydroxy)methyl)acrylonitrile], the “modification of BTK by mass spectrometry” value at BTK is listed as “completely modify”. Turning to `C=CC(=O)Nc1cccc(Nc2nc(Nc3ccc(F)cc3)ncc2F)c1` [Compound I-247, N-(3-(5-fluoro-2-(4-fluorophenylamino)pyrimidin-4-ylamino)phenyl)acrylamide], in test [1], the IC50 is under 10 nM. Besides, the “BTK Inhibition Type” value in test [2] is given as “irreversible”. For the molecule `C=CC(=O)Nc1cccc(Nc2nc(Nc3ccccc3)ncc2F)c1` [Compound I-28, N-(3-(5-fluoro-2-(phenylamino)pyrimidin-4-ylamino)phenyl)acrylamide], in test [2], the “BTK Inhibition Type” value is “irreversible”. As to `C=CC(=O)Nc1cccc(Nc2nc(Nc3ccccc3)ncc2C(N)=O)c1` [Compound I-230, 4-(3-acrylamidophenylamino)-2-(phenylamino)pyrimidine-5-carboxamide], in test [1], the IC50 is under 10 nM. Also, in test [2], the “BTK Inhibition Type” value was “irreversible”. The corresponding values for `C=CC(=O)Nc1cccc(Nc2nc(Nc3cccc(OC)c3)ncc2C(F)(F)F)c1` [Compound I-242, N-(3-(5-trifluoromethyl-2-(3-methoxyphenylamino)pyrimidin-4-ylamino)phenyl)acrylamide] are under 10 nM and “irreversible”.

Take `C=CC(=O)N1CCOc2ccc(Nc3nc(Nc4ccc(OCCOC)cc4)ncc3C(C)=O)cc21` [Compound I-150, 1-(6-{5-Acetyl-2-[4-(2-methoxy-ethoxy)-phenylamino]-pyrimidin-4-ylamino}-2,3-dihydro-benzo[1,4]oxazin-4-yl)-propenone]: in test [1], the IC50 lay in the range of 10 to 100 nM.

Turning to `C=CC(=O)Nc1cccc(Nc2nc(Nc3ccc(OC)nc3)ncc2C2CC2)c1` [Compound I-167, N-(3-(5-cyclopropyl-2-(6-methoxypyridin-3-ylamino)pyrimidin-4-ylamino)phenyl)acrylamide], in test [1], the IC50 lay within 10 to 100 nM.

As to `C=CC(=O)Nc1ccc(Nc2nc(Nc3ccccc3)ncc2C)cc1` [Compound I-39, N-(4-(5-methyl-2-(phenylamino)pyrimidin-4-ylamino)phenyl) acrylamide], in test [1], the IC50 is 10 to 100 nM. The same measure, in the same setting: next, `C=CC(=O)Nc1cccc(Nc2nc(Nc3cccc(S(N)(=O)=O)c3)ncc2F)c1` [Compound I-160, N-(3-(5-fluoro-2-(3-sulfamoylphenylamino)pyrimidin-4-ylamino)phenyl)acrylamide]: 10 to 100 nM. In the case of `C=CC(=O)Nc1cccc(Nc2nc(Nc3ccc(OC)nc3)ncc2C(C)=O)c1` [Compound I-189, N-{3-[5-Acetyl-2-(6-methoxy-pyridin-3-ylamino)-pyrimidin-4-ylamino]-phenyl}-acrylamide], the IC50 in test [1] was in the range of 10 to 100 nM. On to `C=CC(=O)N1CCC(Nc2nc(Nc3cccc(OC)c3)ncc2F)C1` (stereo not drawn) [Compound I-201, 1-(3-(5-fluoro-2-(3-methoxyphenylamino)pyrimidin-4-ylamino)pyrrolidin-1-yl)prop-2-en-1-one], for which, in test [1], the IC50 was 100 to 1000 nM. As for `C=CC(=O)Nc1cccc(Oc2nc(Nc3ccccc3)ncc2C)c1` [Compound I-248, N-(3-(5-methyl-2-(phenylamino)pyrimidin-4-yloxy)phenyl)acrylamide], the IC50 in test [1] is under 10 nM. In addition, the “BTK Inhibition Type” value in test [2] is given as “irreversible”. Turning to `[2H]C([2H])([2H])Oc1ccc(Nc2ncc(F)c(Nc3cccc(NC(=O)C=C)c3)n2)cn1` [Compound I-95, N-(3-(5-fluoro-2-(6-(trideutereomethoxy)pyridine-3-ylamino)pyrimidin-4-ylamino)phenyl)acrylamide], the IC50 in test [1] is under 10 nM. Take `C=CC(=O)Nc1cccc(Nc2nc(Nc3ccc(OC)nc3)ncc2OC)c1` [Compound I-192, N-(3-(5-methoxy-2-(6-methoxypyridin-3-ylamino)pyrimidin-4-ylamino)phenyl)acrylamide]: the IC50 in test [1] lay in the range of 10 to 100 nM.

Regarding `C=CC(=O)Nc1cccc(Nc2nc(Nc3ccc(OC)nc3)ncc2F)c1` [Compound I-243, N-(3-(5-fluoro-2-(6-methoxypyridin-3-ylamino)pyrimidin-4-ylamino)phenyl)acrylamide], in test [1], the IC50 is under 10 nM. In addition, in test [2], the “BTK Inhibition Type” value is on record as “irreversible”.

Consider `C=CC(=O)N1CCOc2ccc(Nc3nc(Nc4ccc(N5CCOCC5)cc4)ncc3C(C)=O)cc21` [Compound I-169, 1-{6-[5-Acetyl-2-(4-morpholin-4-yl-phenylamino)-pyrimidin-4-ylamino]-2,3-dihydro-benzo[1,4]oxazin-4-yl}-propenone], for which, in test [1], the IC50 is under 10 nM. Turning to `Cc1cnc(Nc2ccccc2)nc1Nc1cccc(NC(=O)/C=C/CN(C)C)c1` [Compound I-38, (E)-4-(dimethylamino)-N-(3-(5-methyl-2-(phenylamino)pyrimidin-4-ylamino)phenyl)but-2-enamide], the IC50 in test [1] lay within 10 to 100 nM. For the same molecule, in test [2], the “BTK Inhibition Type” value is “reversible”.

Turning to `C=CC(=O)Nc1cccc(Nc2nc(Nc3ccccc3)ncc2C(F)(F)F)c1` [Compound I-245, N-(3-(5-trifluoromethyl-2-(phenylamino)pyrimidin-4-ylamino)phenyl)acrylamide], the IC50 in test [1] was under 10 nM.

For `C=CC(=O)N1CCOc2ccc(Nc3nc(Nc4ccc(OC)nc4)ncc3C(C)=O)cc21` [Compound I-170, 1-{6-[5-Acetyl-2-(6-methoxy-pyridin-3-ylamino)-pyrimidin-4-ylamino]-2,3-dihydro-benzo[1,4]oxazin-4-yl}-propenone], in test [1], the IC50 was 10 to 100 nM. On the same count and under the same terms, next, `C=CC(=O)Nc1cccc(Nc2nc(Nc3ccc(OCCOC)cc3)ncc2C(C)=O)c1` [Compound I-124, N-(3-{5-Acetyl-2-[4-(2-methoxy-ethoxy)-phenylamino]-pyrimidin-4-ylamino}-phenyl)-acrylamide]: under 10 nM. For the molecule `C=CC(=O)Nc1cccc(Nc2nc(Nc3cc(OC)c(OC)c(OC)c3)ncc2F)c1` [Compound I-133, 4-(3-acrylamidophenylamino)-5-fluoro-2-(3,4,5-trimethoxyphenylamino)-pyrimidine], in test [1], the IC50 lay in the range of 10 to 100 nM.

Regarding `C=CC(=O)Nc1cccc(Nc2nc(Nc3ccc4c(c3)N(S(C)(=O)=O)CCO4)ncc2F)c1` [Compound I-140, N-(3-(2-(4-methylsulfonyl-2,3-dihydrobenzo[1,4]oxazin-6-yl)amino-5-fluoropyrimidin-4-ylamino)phenyl)acrylamide], the IC50 in test [1] lay in the range of 10 to 100 nM.
